# Results as given in US4333934A, “Imidazoquinoxalines and pyrroloquinoxalines” (Roussel Uclaf, priority 1979, dated 1982).
# Structures can show the parent of a compound that is named as a salt. Where two headings read alike, the source gives them in different places.
# Assays:
# [1] = system: Passive cutaneous anaphylaxis (PCA) in rats; test: Passive cutaneous anaphylaxis (PCA) in rats; assay type: in vivo, rat; details: for ED50: Rattus norvegicus
# Excerpt: Cutaneous anaphylaxis was induced in groups of male rats weighing 180-220 g by intradermal (ID) sensitization with antiserum followed three days later by systemic challenge with antigen. Evans blue dye injected with the antigen was used as a marker to assess the severity of the local response. Anti-allergic drugs inhibit this reaction and this method is described by OVARY [(1962) in "Passive cutaneous Anaphylaxis in Allergology" 358-367 Ed. Brown: Pergamon Press:].
# 1. Wash 120 grams Al (OH)3 gel in 140 ml of saline (use of a macerater facilitates mixing).
# 2. Centrifuge at 3,000 r.p.m. for about 10 minutes.
# 3. Resuspend the precipitate with 300 ml of albumen egg powder (1.3 mg/ml) in saline and allow to stand for 30 minutes.
# 4. Centrifuge at 3,000 r.p.m. for 10 minutes.
# 5. Weigh the wet precipitate and to each gram weight, add 1 ml of saline. Store in refrigerator. (Quantity sufficient for 60 rats for a 3 day sensitization programme).
# 1. 1 ml of the alum precipitated ovalbumen was injected subcutaneously into 180-220 gram rats on days 0,2,4.
# 2. The rats were bled on day 14 either by cardiac puncture or via the dorsal abdominal aorta.
# 3. Equal quantities of serum from each animal were pooled and thoroughly mixed.
# 4. 2 ml aliquots were stored at -20° C. in plastic tubes.
# The antiserum for sensitization was diluted so that an ID injection of 0.1 ml into control animals gave an average score of a single spot of between 2.0-3.5 using a 5 point scoring system (0,1,2,3,4).
# Rats were anaesthetised with Nembutal (40-60 mg/kg i.p.) and were then sensitized by four ID injections (0.1 ml each) on shaved backs. The animals were then left for a period of three days to develop sensitization.
# The sensitized rats were dosed orally or intraveneously with the drug immediately prior to intraveneous challenge via the superficial penile vein with 1 ml of an antigen/Evans blue mixture (1 mg albumen egg powder in 0.5 ml saline plus 0.5 ml of 1% Evans blue). The injections were speeded up by using an automatic 1 ml self-filling glass syringe. The "challenged" rats were killed after 30 minutes, (usually pithed) and their skin on the dorsal surface was removed. The degree and area of blueing, proportional to the anaphylactic reaction was assessed on a five point scoring system.
# 1. Total scores for sites 1,2,3 and 4=X
# 2. Mean value of X for each group=X
# [2] = Solubility remark (footnote of Table 1); assay type: physicochemical; details: all solvents
# [3] = iv, read-out: ED50 (dose of drug giving 50% inhibition), i.v., dosed immediately prior to intravenous antigen challenge, male rats
# [4] = po, read-out: ED50 (dose of drug giving 50% inhibition), p.o., dosed immediately prior to intravenous antigen challenge, male rats
Compound,"ED50 [1, 3]","ED50 [1, 4]","ED50 (dose of drug giving 50% inhibition), p.o. ([1]; p.o., dosed immediately prior to intravenous antigen challenge, male rats)",solubility (in words) [2]
"OCc1cn2c(cnc3ccccc32)n1 [2 (as hydrochloride), Imidazo-[1,2-a]-quinoxaline-2-methanol]",0.16 mg/kg,0.068 mg/kg,,
"c1ccc2c(c1)ncc1nc(-c3nnn[nH]3)cn12 [3 (as hydrochloride), 2-(1H-tetrazol-5-yl)-imidazo-[1,2-a]-quinoxaline]",,0.084 mg/kg,0.089 mg/kg,
Clc1ccc2c(Cl)cc3nc(-c4nnn[nH]4)cn3c2c1 [11 Step C],,,,extremely insoluble in all solvents
"OCc1cn2c(ccc3ccccc32)n1 [Example 5, Imidazo-[1,2-a]-quinoline-2-methanol]",,0.36 mg/kg,,
"O=Cc1cn2c(ccc3ccccc32)n1 [Example 6, Imidazo-[1,2-a]-quinoline-2-carboxaldehyde]",,0.09 mg/kg,,
"c1ccc2c(c1)ccc1nc(-c3nnn[nH]3)cn12 [Example 7, 2-(1H-tetrazol-5-yl)-imidazo-[1,2-a]-quinoline]",0.026 mg/kg,0.105 mg/kg,,
"NCc1cn2c(ccc3ccccc32)n1 [Example 8, Imidazo-[1,2-a]-quinoline-2-methanamine dihydrochloride]",0.11 mg/kg,0.98 mg/kg,,
COc1ccc2ccc3nc(CO)cn3c2c1 [Example 12],0.27 mg/kg,0.24 mg/kg,,
COc1ccc2ccc3nc(C=O)cn3c2c1 [Example 13],0.12 mg/kg,0.4 mg/kg,,
"COc1ccc2ccc3nc(-c4nnn[nH]4)cn3c2c1 [Example 14, 8-methoxy-2-(1H-tetrazol-5-yl)-imidazo-[1,2-a]-quinoline]",0.01 mg/kg,0.12 mg/kg,,
COc1ccc2ccc3nc(CN)cn3c2c1 [Example 15],3.39 mg/kg,,,
"CCn1c(=O)c2nc(CO)cn2c2ccccc21 [Example 21, 5-ethyl-2-hydroxymethyl-imidazo-[1,2-a]-quinoxaline-4-(5H)-one]",,0.062 mg/kg,,
"CCn1c(=O)c2nc(C=O)cn2c2ccccc21 [Example 22, 4,5-dihydro-5-ethyl-4-oxo-imidazo-[1,2-a]-quinoxaline-2-carboxaldehyde]",,0.077 mg/kg,,
"CCn1c(=O)c2cc(CO)cn2c2ccccc21 [Example 24, 5-ethyl-2-hydroxymethyl-pyrrolo-[1,2-a]-quinoxaline-4(5H)-one]",,0.045 mg/kg,,
"CCn1c(=O)c2cc(-c3nnn[nH]3)cn2c2ccccc21 [Example 26, 5-ethyl-2-(1H-tetrazol-5-yl)-pyrrolo-[1,2-a]-quinoxaline-4(5H)-one]",0.011 mg/kg,0.439 mg/kg,,
"c1ccc2c(c1)OCc1nc(-c3nnn[nH]3)cn1-2 [Example 30, 4H-2-(1H-tetrazol-5-yl)-imidazo-[2,1-c][1,4]-benzoxazine]",0.33 mg/kg,,,
